In patent US20130289056A1, “METHODS OF ADMINISTERING AN EGFR INHIBITOR” (Boehringer Ingelheim International GmbH, priority 2010, published 2013):

What was measured:
CaCo-2 cell layers = test: Passive permeability through CaCo-2 cell layers; assay type: in vitro ADME
Source text: (§1) Passive Permeability through CaCo-2 Cell Layers and P-gp Transport Profiling: […]

[1] = target: P-glycoprotein (MDR1, ABCB1) (Homo sapiens, UniProt P08183); test: P-gp transport profiling (substrate); assay type: in vitro ADME; conditions: human, Caco-2 cell layers; estimated
Source text: as §1

[2] = target: T1, P-glycoprotein (a.k.a. MDR1, ABCB1) (Homo sapiens, UniProt P08183); test: P-gp transport profiling (substrate); assay type: in vitro ADME; conditions: in vitro
Source text: as §1

[3] = target: T1, P-glycoprotein (a.k.a. MDR1, ABCB1); test: Inhibition of P-gp by BIBW 2992; assay type: in vitro ADME; conditions: mean of two independent experiments; read-out: estimated Ki as inhibitor of P-gp
Source text: as §1

CYP3A4 = target: T2, CYP3A4 (Homo sapiens, UniProt P08684); test: CYP3A4-catalysed metabolism of BIBW 2992 in vivo (previous studies)
T2 construct: host or cells: healthy volunteers (in vivo)

[4] = in vivo; cited from earlier work
[5] = Phase I two-way crossover trial: effect of ritonavir on pharmacokinetics of BIBW 2992

T1 sequence (P08183 whole entry): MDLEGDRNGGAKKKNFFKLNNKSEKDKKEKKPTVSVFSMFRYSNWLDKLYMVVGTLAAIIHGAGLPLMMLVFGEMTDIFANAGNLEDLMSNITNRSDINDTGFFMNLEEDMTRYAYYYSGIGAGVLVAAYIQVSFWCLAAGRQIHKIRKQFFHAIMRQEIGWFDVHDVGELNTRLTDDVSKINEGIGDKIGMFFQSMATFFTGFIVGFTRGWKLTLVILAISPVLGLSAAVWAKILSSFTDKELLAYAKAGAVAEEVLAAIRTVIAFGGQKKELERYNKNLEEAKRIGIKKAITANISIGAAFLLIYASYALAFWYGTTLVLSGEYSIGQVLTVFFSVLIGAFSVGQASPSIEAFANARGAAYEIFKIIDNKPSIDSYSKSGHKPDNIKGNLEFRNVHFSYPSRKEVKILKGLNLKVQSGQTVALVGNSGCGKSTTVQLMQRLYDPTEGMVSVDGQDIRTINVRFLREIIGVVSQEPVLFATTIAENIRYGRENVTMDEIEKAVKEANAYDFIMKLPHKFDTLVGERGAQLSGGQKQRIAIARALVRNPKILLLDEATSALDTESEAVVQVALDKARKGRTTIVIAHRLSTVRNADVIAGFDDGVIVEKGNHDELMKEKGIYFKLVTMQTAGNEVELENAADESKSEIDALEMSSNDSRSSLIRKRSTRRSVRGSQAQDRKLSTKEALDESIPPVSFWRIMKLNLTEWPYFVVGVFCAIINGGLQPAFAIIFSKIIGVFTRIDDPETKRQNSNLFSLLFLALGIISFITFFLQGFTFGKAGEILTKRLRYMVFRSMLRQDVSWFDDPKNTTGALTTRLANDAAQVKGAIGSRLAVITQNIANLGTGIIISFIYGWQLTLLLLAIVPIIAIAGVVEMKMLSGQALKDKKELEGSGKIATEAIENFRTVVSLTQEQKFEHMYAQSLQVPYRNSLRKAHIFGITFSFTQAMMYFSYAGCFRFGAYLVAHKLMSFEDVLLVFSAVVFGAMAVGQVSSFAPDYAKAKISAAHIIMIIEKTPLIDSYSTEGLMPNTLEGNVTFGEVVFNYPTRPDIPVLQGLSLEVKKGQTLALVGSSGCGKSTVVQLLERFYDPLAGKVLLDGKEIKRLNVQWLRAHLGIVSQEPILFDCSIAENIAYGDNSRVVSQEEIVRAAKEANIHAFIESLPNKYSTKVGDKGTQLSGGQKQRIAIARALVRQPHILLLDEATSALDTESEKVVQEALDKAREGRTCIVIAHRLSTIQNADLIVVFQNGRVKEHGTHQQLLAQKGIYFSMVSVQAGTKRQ
T2 sequence (P08684 whole entry): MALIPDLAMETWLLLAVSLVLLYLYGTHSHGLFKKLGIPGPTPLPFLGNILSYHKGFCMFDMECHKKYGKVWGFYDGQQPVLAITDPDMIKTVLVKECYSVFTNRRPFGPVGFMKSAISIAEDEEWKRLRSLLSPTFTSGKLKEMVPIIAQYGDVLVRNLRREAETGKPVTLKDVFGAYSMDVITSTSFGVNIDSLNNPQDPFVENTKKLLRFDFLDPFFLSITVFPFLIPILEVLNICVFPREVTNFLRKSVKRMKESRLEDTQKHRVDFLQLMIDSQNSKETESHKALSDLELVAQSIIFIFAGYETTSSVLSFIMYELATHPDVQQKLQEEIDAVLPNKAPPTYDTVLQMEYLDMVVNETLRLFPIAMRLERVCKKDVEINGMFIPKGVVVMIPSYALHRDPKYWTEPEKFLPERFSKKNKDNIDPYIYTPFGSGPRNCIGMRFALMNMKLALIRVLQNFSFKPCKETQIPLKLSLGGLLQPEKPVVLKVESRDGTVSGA
P-glycoprotein (MDR1, ABCB1), sequence (P08183 whole entry): as the sequence (P08183 whole entry) above

Compound: CN(C)C/C=C/C(=O)Nc1cc2c(Nc3ccc(F)c(Cl)c3)ncnc2cc1O[C@H]1CCOC1.O=C(O)/C=C\C(=O)O.O=C(O)/C=C\C(=O)O [BIBW 2992, 4-[(3-chloro-4-fluorophenyl)amino]-6-{[4-(N,N-dimethylamino)-1-oxo-2-buten-1-yl]amino}-7-((S)-tetrahydrofuran-3-yloxy)-quinazoline]
- passive permeability (CaCo-2 cell layers): high
- Km [1]: 10 to 30 µM
- P-gp substrate status [2]: substrate of P-gp
- Ki [3]: 3.4 µM
- CYP3A4-dependent N-demethylation (CYP3A4; healthy volunteers): too low to be quantitatively detected
- role of CYP3A4 enzyme-catalysed metabolic reactions for metabolism (CYP3A4; in vivo): subordinate role
- dose dependence of exposure [4]: more than dose-proportional increase in exposure
- AUC0-∞ increase compared with BIBW 2992 given alone ([5]; BIBW 2992 20 mg oral with ritonavir 200 mg twice daily, healthy male volunteers, 90% CI 133.7%, 162.9%): 47.6%
- AUC0-tz increase compared with BIBW 2992 given alone ([5]; BIBW 2992 20 mg oral with ritonavir 200 mg twice daily, healthy male volunteers, 90% CI 134.5%, 165.1%): 49.0%
- Tmax ([5]; male, human, in vivo, oral, 20 mg): 4 h
- terminal half-life, effect of ritonavir cotreatment ([5]; with ritonavir 200 mg bid vs alone): unchanged
